This is an account of results in ChEMBL document CHEMBL1138026, “Ketopyrrolidines and ketoazetidines as potent dipeptidyl peptidase IV (DPP IV) inhibitors” (Bioorg Med Chem Lett, 2004).

The nature of the first assay: Inhibition constant against dipeptidyl peptidase IV.
`CC(C)[C@H](N)C(=O)N1CCC[C@H]1B(O)O` [TALABOSTAT]: the Ki (usually the dissociation constant of the complex between target and ligand, obtained from inhibition or displacement) was found to be 2 nM.

The nature of the next assay: Inhibitory concentration against dipeptidyl peptidase IV.
For the molecule `CC(C)(C)NCC(=O)N1CCC1C(=O)c1nc2ccccc2s1` (stereo not given), the IC50 – broadly, the concentration that gives 50% inhibition – was found to be 100 nM.
Still for that read-out and setting: under `N[C@@H](C(=O)N1CC[C@@H]1C(=O)c1nccs1)C1CCCCC1` stands 40 nM; under `N#C[C@@H]1CCCN1C(=O)[C@@H](N)C1CCCCC1`, 8 nM; under `O=C(c1nc2ccccc2s1)C1CCN1C(=O)[C@@H]1C[C@@H]2CCCC[C@@H]2N1` (stereo not given in full), 115 nM.
`CC[C@H](C)[C@H](N)C(=O)N1CC[C@H]1C(=O)c1nc2ccccc2s1` registered an IC50 of 200 nM.
In turn, `N[C@H](C(=O)N1CCCC1)C1CCCCC1` came in with a 50% inhibitory concentration (IC50) of 125 nM.
As for `CC(=O)[C@@H]1CCCN1C(=O)[C@@H]1C[C@@H]2CCCC[C@@H]2N1`, the IC50 is above 100000 nM.
For the molecule `N[C@H](C(=O)N1CCSC1)C1CCCCC1`, 150 nM corresponded to half-maximal inhibition (IC50).
On the same count and under the same terms, under `Cn1cncc1C(=O)[C@@H]1CCCN1C(=O)[C@@H]1C[C@@H]2CCCC[C@@H]2N1` stands above 100000 nM.
On the same count and under the same terms, under `N[C@@H](C(=O)N1CCCC[C@@H]1C(=O)c1nccs1)C1CCCCC1` stands above 100000 nM; under `C[C@H](N)C(=O)N1CCCC1P(=O)(Oc1ccccc1)Oc1ccccc1` (stereo not given in full), 15 nM; under `N[C@@H](C(=O)N1CCCC[C@H]1C(=O)c1nccs1)C1CCCCC1`, above 100000 nM.
The same measure, in the same setting: under `O=c1c(C2CCCCC2)nc(-c2nccs2)c2n1CCC2` stands above 100000 nM; under `O=C(c1nc2ccccc2s1)[C@@H]1CCN1C(=O)CNC1CCCCC1`, 190 nM; under `CCC(C)C(N)C(=O)N1CCC[C@H]1C(=O)c1nc2ccccc2s1` (stereo not given in full), 100 nM.
In the case of `O=C(c1cccnc1)[C@@H]1CCCN1C(=O)[C@@H]1C[C@@H]2CCCC[C@@H]2N1`, the 50% inhibitory concentration (IC50) was above 100000 nM.
On the same count and under the same terms, under `O=C(c1ccccc1)[C@@H]1CCCN1C(=O)[C@@H]1C[C@@H]2CCCC[C@@H]2N1` stands above 100000 nM; under `O=C(c1nc2ccccc2s1)[C@@H]1CCCN1C(=O)CNC1CCCCC1`, 300 nM.
Still for that read-out and setting: under `N[C@@H](C(=O)N1CCC[C@@H]1C(=O)c1nccs1)C1CCCCC1` stands 1000 nM.
